Experimental findings from ChEMBL document CHEMBL3856198, “Synthesis of novel 17-(4'-formyl)pyrazolylandrosta-5,16-dienes and their derivatives as potent 17α-hydroxylase/C17,20-lyase inhibitors or antiproliferative agents depending on the substitution pattern of the heteroring” (Eur J Med Chem, 2016) are described below.

Data set [1] deals with T1, Steroid 17-alpha-hydroxylase/17,20 lyase (Rattus norvegicus, UniProt P11715).
T1 sequence (P11715 whole entry): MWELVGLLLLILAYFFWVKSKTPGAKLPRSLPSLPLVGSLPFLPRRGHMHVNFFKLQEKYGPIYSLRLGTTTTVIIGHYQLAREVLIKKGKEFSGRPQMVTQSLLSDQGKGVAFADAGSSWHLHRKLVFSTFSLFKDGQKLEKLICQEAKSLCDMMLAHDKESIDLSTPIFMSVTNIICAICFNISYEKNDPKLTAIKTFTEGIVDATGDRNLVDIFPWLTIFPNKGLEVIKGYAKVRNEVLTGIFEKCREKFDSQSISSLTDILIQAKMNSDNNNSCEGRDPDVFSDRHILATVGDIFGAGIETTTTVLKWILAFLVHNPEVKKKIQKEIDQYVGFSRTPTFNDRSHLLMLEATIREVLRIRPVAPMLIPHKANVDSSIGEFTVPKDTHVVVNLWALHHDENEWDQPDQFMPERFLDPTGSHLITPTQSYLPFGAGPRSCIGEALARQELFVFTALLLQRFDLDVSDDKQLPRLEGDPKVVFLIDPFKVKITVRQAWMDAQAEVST
In words: Potency index, ratio of ketoconazole IC50 to compound IC50 for Wistar rat testicular C17,20-lyase.

The nature of data set [2]: Growth inhibition of human MCF7 cells at 30 uM after 72 hrs by MTT assay. It is filed as functional. Conditions: MCF7, 72 h, read-out: GI.
Data set [3] in a line: Growth inhibition of human MCF7 cells at 10 uM after 72 hrs by MTT assay. Conditions: MCF7, 72 h, read-out: GI. It is filed as functional.
Data set [4] can be described thus: Growth inhibition of human MDA-MB-231 cells at 10 uM after 72 hrs by MTT assay. The conditions noted are these: MDA-MB-231, 72 h, read-out: GI. It is filed as functional.
The nature of data set [5]: Growth inhibition of human MDA-MB-361 cells at 30 uM after 72 hrs by MTT assay. It is filed as functional. Conditions: MDA-MB-361, 72 h, read-out: GI.
The nature of data set [6]: Growth inhibition of human MDA-MB-361 cells at 10 uM after 72 hrs by MTT assay. Type of data set: functional. Conditions: MDA-MB-361, 72 h, read-out: GI.
A short description of data set [7]: Growth inhibition of human T47D cells at 30 uM after 72 hrs by MTT assay. Type of data set: functional. The conditions noted are these: read-out: GI.
Data set [8] in a line: Growth inhibition of human MDA-MB-231 cells at 30 uM after 72 hrs by MTT assay. Type of data set: functional. The conditions noted are these: MDA-MB-231, 72 h, read-out: GI.
Data set [9] in a line: Growth inhibition of human T47D cells at 10 uM after 72 hrs by MTT assay. Type of data set: functional. Conditions: read-out: GI.
Data set [10] has as its target T1, Steroid 17-alpha-hydroxylase/17,20 lyase. In words: Inhibition of Wistar rat testicular C17,20-lyase assessed as androst-4-ene-3,17-dione formation using [3H]17-hydroxyprogesterone as substrate in presence of NADPH.

Regarding `C[C@]12CC[C@H](O)CC1=CC[C@@H]1[C@@H]2CC[C@]2(C)C(c3n[nH]cc3CO)=CC[C@@H]12`, the “Ratio IC50” value in data set [1] was 12. Also, the inhibition of growth at 30 µM in [2] is under 20%; in [5] it was 35.6%; in data set [7], 25.7%; in [8] it was under 20%. In addition, the inhibition of growth at 10 µM in [3], in [4], in [6] and in data set [9] was under 20% throughout. In addition, the IC50 in data set [10] was 26 nM.
